This is an account of results in publication PMC3144920, “Peptide Substrates for Rho-Associated Kinase 2 (Rho-Kinase 2/ROCK2)” (PLoS ONE, 2011).

Type in all cases: biochemical
Assay [1] addresses T1, ROCK2 (Homo sapiens, UniProt O75116).
T1 construct: purchased Carna Biosciences, Kobe, Japan
Nature of the assay: Inhibition of ROCK2 phosphorylation of S6K substrate peptide by inhibitor peptides. As to conditions: competitive; S6K peptide (KRRRLASLR) as substrate, 1.25 µg/mL ROCK2, 100 µM ATP, MOPS pH 7.2; Dixon plot and Lineweaver–Burk plot. As for the experimental part: The phosphorylatable amino acid (threonine) of five peptide substrates (R4, R22, R133, R134, and R135) was replaced with alanine. […] Ki values were obtained from the Dixon plot and Lineweaver–Burk plot. Inhibitor peptides were added into 25 µL of buffer (5 mM MOPS at pH 7.2, 2.5 mM beta-glycerophosphate, 1 mM EGTA, 4 mM MgCl2, 0.05 mM DTT, and 100 µM ATP) containing S6K substrate peptide and 1.25 µg/mL ROCK2.

Another assay deals with T2, PKA (Bos taurus, UniProt P00517).
T2 construct: purchased Promega, Madison, WI, USA
Nature of the assay: Radiolabel assay using [γ-32P]ATP: phosphorylation of peptide substrates by PKA. As to conditions: 1.6 µg/mL PKA, 100 µM ATP, HEPES pH 7.4, 10 min at 25°C; Fig. 3, in words. As for the experimental part:
(§1) The kinase activity of recombinant ROCK2 (Carna Biosciences, Kobe, Japan), ERK1 (Upstate, Millipore, Temecula, CA, USA), PKA (Promega, Madison, WI, USA), and PKCα (Sigma–Aldrich, St. Louis, MO, USA) for the peptide substrates was determined by measuring ^32P transfer from [γ-^32P]ATP into substrate peptides according to manufacturer recommendations. Phosphorylation reactions by ROCK2 were carried out in 25 µL of buffer (5 mM 3-(N-morpholino)propanesulfonic acid (MOPS) at pH 7.2, 2.5 mM beta-glycerophosphate, 1 mM ethylene glycol tetra-acetic acid (EGTA), 4 mM MgCl2, 0.05 mM dithiothreitol (DTT), and 100 µM adenosine triphosphate (ATP)) containing peptides and 1.25 µg/ml ROCK2. For PKCα, phosphorylation reactions were carried out in 25 µL of buffer (20 mM HEPES at pH 7.4, 10 mM MgCl2, 1 mM CaCl2, 100 µM ATP, 40 µg/mL phosphatidylserine, and 20 µg/mL diacylglycerol) containing peptides and 0.5 µg/mL PKCα. Phosphorylation reactions by PKA were carried out in 25 µL of buffer (50 mM HEPES at pH 7.4, 1 mM CaCl2, 10 mM MgCl2, 100 µM ATP) containing peptides and 1.6 µg/mL PKA. For ERK1, phosphorylation reactions were carried out in 25 µL of buffer (25 mM Tris-HCl at pH 7.5, 20 µM EGTA, 15 mM magnesium acetate, and 100 µM ATP) containing peptides and 0.5 µg/mL ERK1. For each experimental condition, values for control reactions lacking substrate peptides were subtracted as blanks. The assay mixture was incubated for 10 min at 25°C, and the reaction terminated by the addition of 5 µL of 30% trichloroacetic acid (TCA). The reaction mixture (24 µL) was spotted onto P-81 phosphocellulose membranes. The membranes were washed thrice with 5% TCA, dried with acetone, and the radioactivity of each membrane determined by liquid scintillation counting. Kinetic analyses of enzyme activity were determined using the Lineweaver–Burk plot.

The target in the next assay is T3, ERK1 (Homo sapiens, UniProt P27361).
T3 construct: purchased Upstate, Millipore, Temecula, CA, USA
Nature of the assay: Radiolabel assay using [γ-32P]ATP: phosphorylation of peptide substrates by ERK1. The following applies: 0.5 µg/mL ERK1, 100 µM ATP, Tris-HCl pH 7.5, 10 min at 25°C; Fig. 3, in words. As for the experimental part: as §1

Assay [2] addresses T1, ROCK2. Nature of the assay: Kinetic analysis of peptide substrate phosphorylation by ROCK2 (Lineweaver–Burk plot). As for the experimental part: as §1, with “plot. […]” for “plot.”
The next assay addresses T4, PKCα (Homo sapiens, UniProt P17252).
T4 construct: purchased Sigma–Aldrich, St. Louis, MO, USA
Nature of the assay: Radiolabel assay using [γ-32P]ATP: phosphorylation of peptide substrates by PKCα. The following applies: Fig. 3, in words; for CPM for PKCα: 0.5 µg/mL PKCα, 100 µM ATP, HEPES pH 7.4, 10 min at 25°C. As for the experimental part:
as §1

Entries after “also recorded” stand apart in the source; their conditions may differ. Where a SMILES comes first, the peptide text is derived from it.

T3 sequence (P27361 whole entry, species assumed): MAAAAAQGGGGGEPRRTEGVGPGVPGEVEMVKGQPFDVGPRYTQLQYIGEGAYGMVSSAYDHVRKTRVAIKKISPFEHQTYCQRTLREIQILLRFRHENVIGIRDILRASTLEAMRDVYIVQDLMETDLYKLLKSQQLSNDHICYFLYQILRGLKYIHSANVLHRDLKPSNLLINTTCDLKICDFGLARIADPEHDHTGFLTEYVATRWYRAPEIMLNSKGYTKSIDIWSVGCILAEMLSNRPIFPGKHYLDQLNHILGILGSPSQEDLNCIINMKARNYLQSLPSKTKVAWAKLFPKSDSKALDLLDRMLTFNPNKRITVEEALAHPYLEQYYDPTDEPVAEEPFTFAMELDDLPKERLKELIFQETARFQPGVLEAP
T1 sequence (O75116 1-553 limits assumed): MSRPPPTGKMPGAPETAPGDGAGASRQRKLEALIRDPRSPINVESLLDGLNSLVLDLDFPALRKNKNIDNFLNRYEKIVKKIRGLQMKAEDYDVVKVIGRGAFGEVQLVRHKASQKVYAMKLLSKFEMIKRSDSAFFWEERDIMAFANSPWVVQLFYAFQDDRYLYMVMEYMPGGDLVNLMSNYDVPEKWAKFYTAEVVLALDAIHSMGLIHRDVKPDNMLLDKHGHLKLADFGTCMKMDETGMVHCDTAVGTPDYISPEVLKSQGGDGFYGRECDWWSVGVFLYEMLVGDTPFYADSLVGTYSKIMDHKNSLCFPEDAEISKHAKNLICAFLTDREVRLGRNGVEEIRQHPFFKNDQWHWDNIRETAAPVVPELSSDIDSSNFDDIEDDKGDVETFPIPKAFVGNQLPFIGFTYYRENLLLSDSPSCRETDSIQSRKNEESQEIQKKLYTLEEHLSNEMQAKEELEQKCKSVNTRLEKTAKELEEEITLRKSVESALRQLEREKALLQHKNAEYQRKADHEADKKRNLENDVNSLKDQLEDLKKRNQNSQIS

For orientation: Ki means a measure of affinity in units of concentration, obtained from inhibition or displacement. Higher therefore signals weaker binding. On ROCK2 [1], `CC[C@H](C)[C@H](NC(=O)[C@H](CCC(N)=O)NC(=O)[C@H](CCCNC(=N)N)NC(=O)[C@H](CC(C)C)NC(=O)[C@H](C)NC(=O)[C@H](CCCCN)NC(=O)[C@H](Cc1ccc(O)cc1)NC(=O)[C@H](CCCCN)NC(=O)[C@H](C)NC(=O)[C@@H](N)CCCNC(=N)N)C(=O)N[C@@H](CCCNC(=N)N)C(=O)O` [R4 with alanine instead of threonine] (H-RAKYKALRQIR-OH) registered a Ki of 86.6 µM.
On to `CSCC[C@H](NC(=O)[C@H](Cc1c[nH]c2ccccc12)NC(=O)[C@H](Cc1ccc(O)cc1)NC(=O)[C@@H]1CCCN1C(=O)[C@H](CC(N)=O)NC(=O)CNC(=O)[C@@H](NC(=O)[C@@H](NC(=O)[C@H](C)NC(=O)[C@H](Cc1ccc(O)cc1)NC(=O)[C@H](CCCNC(=N)N)NC(=O)[C@H](CCCCN)NC(=O)[C@H](CCCCN)NC(=O)[C@H](CCCNC(=N)N)NC(=O)[C@H](C)NC(=O)[C@@H]1CCCN1C(=O)[C@@H](N)CCCCN)C(C)C)C(C)C)C(=O)O` [R22 with alanine instead of threonine] (H-KPARKKRYAVVGNPYWM-OH), for which the affinity on ROCK2 [1] corresponds to a Ki of 11.6 µM.
On ROCK2 [1], `CSCC[C@H](NC(=O)[C@H](Cc1c[nH]c2ccccc12)NC(=O)[C@H](Cc1ccc(O)cc1)NC(=O)[C@@H]1CCCN1C(=O)[C@H](CC(N)=O)NC(=O)CNC(=O)[C@@H](NC(=O)[C@@H](NC(=O)[C@H](C)NC(=O)[C@H](Cc1ccc(O)cc1)NC(=O)[C@H](CCCNC(=N)N)NC(=O)[C@H](CCCCN)NC(=O)[C@H](CCCCN)NC(=O)[C@H](CCCNC(=N)N)NC(=O)[C@H](CC(=O)O)NC(=O)[C@H](CO)NC(=O)[C@@H](N)CCCCN)C(C)C)C(C)C)C(=O)O` [R133 with alanine instead of threonine] (H-KSDRKKRYAVVGNPYWM-OH; N-terminus and C-terminus assumed) displayed a Ki above 100 µM.
On to `CSCC[C@H](NC(=O)[C@H](Cc1c[nH]c2ccccc12)NC(=O)[C@H](Cc1ccc(O)cc1)NC(=O)[C@@H]1CCCN1C(=O)[C@H](CC(N)=O)NC(=O)CNC(=O)[C@@H](NC(=O)[C@@H](NC(=O)[C@H](C)NC(=O)[C@H](Cc1ccc(O)cc1)NC(=O)[C@H](CCCNC(=N)N)NC(=O)[C@H](CCCCN)NC(=O)[C@H](CCCCN)NC(=O)[C@H](CCCNC(=N)N)NC(=O)[C@H](C)NC(=O)[C@H](CO)NC(=O)[C@@H](N)CCCCN)C(C)C)C(C)C)C(=O)O` [R134 with alanine instead of threonine] (H-KSARKKRYAVVGNPYWM-OH), for which affinity on ROCK2 [1] was put at a Ki of 29.2 µM.
`CSCC[C@H](NC(=O)[C@H](Cc1c[nH]c2ccccc12)NC(=O)[C@H](Cc1ccc(O)cc1)NC(=O)[C@@H]1CCCN1C(=O)[C@H](CC(N)=O)NC(=O)CNC(=O)[C@@H](NC(=O)[C@@H](NC(=O)[C@H](C)NC(=O)[C@H](Cc1ccc(O)cc1)NC(=O)[C@H](CCCNC(=N)N)NC(=O)[C@H](CCCCN)NC(=O)[C@H](CCCCN)NC(=O)[C@H](CCCNC(=N)N)NC(=O)[C@H](CC(=O)O)NC(=O)[C@H](C)NC(=O)[C@@H](N)CCCCN)C(C)C)C(C)C)C(=O)O` [R135 with alanine instead of threonine] (H-KADRKKRYAVVGNPYWM-OH; N-terminus and C-terminus assumed): the Ki at ROCK2 [1] is above 100 µM.
Broadly, the Km is the substrate concentration at which the rate is half of its maximum. What is called Vmax is the top rate of the reaction or transport when substrate is in excess. Regarding “KADRKKRYTVVGNPYWM [R135, peptide substrate for ROCK2 …, origin LIMK2]”, the “CPM for ROCK2 compared with PKA” value on PKA is “higher CPM levels for ROCK2 than the other enzymes”. The “CPM for ROCK2 compared with ERK1” value on ERK1 is listed as “higher CPM levels for ROCK2 than the other enzymes”. For the same molecule, at ROCK2 [2], the Michaelis constant (Km) is 3.2 µM and the Vmax was 8.6 pmol/min/mg. Moreover, the “CPM for ROCK2 compared with PKCα” value on PKCα is “much higher CPM for ROCK2 than that of PKCα; also recorded: higher CPM levels for ROCK2 than the other enzymes”.
In the case of “KPARKKRYTVVGNPYWM [R22, peptide substrate for ROCK2 …, origin LIM-kinase 1 (LIMK1)]”, the “CPM for ROCK2 compared with PKA” value on PKA is “higher CPM levels for ROCK2 than the other enzymes”. Moreover, at ERK1, the “CPM for ROCK2 compared with ERK1” value is recorded as “higher CPM levels for ROCK2 than the other enzymes”. Also, on ROCK2 [2], the Km came out at 1.9 µM and the maximum rate (Vmax) is recorded as 10.3 pmol/min/mg. The “CPM for ROCK2 compared with PKCα” value on PKCα is recorded as “much higher CPM for ROCK2 than that of PKCα; also recorded: higher CPM levels for ROCK2 than the other enzymes”.
Consider “KRRRLASLR [S6K, synthetic peptide S6K (…) used as a control for ROCK2, reference compound]”, for which, at ROCK2 [2], the Km was 3.1 µM and the Vmax is given as 23.1 pmol/min/mg.
For “KSARKKRYTVVGNPYWM [R134, peptide substrate for ROCK2 …, origin LIMK2]”, at ROCK2 [2], the Michaelis-Menten constant (Km) was found to be 3.3 µM and the maximum rate (Vmax) is 14.9 pmol/min/mg. In addition, at PKCα, the “CPM for PKCα” value is recorded as “high CPM”.
Take “KSDRKKRYTVVGNPYWM [R133, peptide substrate for ROCK2 …, origin LIMK2]”: the “CPM for ROCK2 compared with PKA” value on PKA is listed as “higher CPM levels for ROCK2 than the other enzymes”. At ERK1, the “CPM for ROCK2 compared with ERK1” value is given as “higher CPM levels for ROCK2 than the other enzymes”. At ROCK2 [2], the Km was found to be 3.6 µM and the maximal velocity (Vmax) was 10.0 pmol/min/mg. In addition, the “CPM for ROCK2 compared with PKCα” value on PKCα is reported as “much higher CPM for ROCK2 than that of PKCα; also recorded: higher CPM levels for ROCK2 than the other enzymes”.
For the molecule “RAKYKTLRQIR [R4, peptide substrate for ROCK2 …, origin ERM family (Ezrin/ Radixin/ Moesin)]”, at ROCK2 [2], the Michaelis constant (Km) came out at 1.7 µM and the Vmax was determined as 14.2 pmol/min/mg. Besides, the “CPM for PKCα” value at PKCα is on record as “high CPM”.
